Experimental data from patent US20120202690A1, “HERBICIDAL COMPOUNDS” (SYNGENTA LIMITED, priority 2009, published 2012).

How the values were obtained:
Format in all cases: in vivo
[1] = test system: Alopecurus myosuroides (ALOMY); test: Post-emergence biological efficacy, glasshouse, 500 or 1000 g/ha, evaluated after 13 days (100=total damage to plant; 0=no damage to plant); conditions: Alopecurus myosuroides, 312 h, rate 1,000 g/ha, read-out: Percentage damage caused to weed species, post-emergence, ALOMY
Summary of the method: (§1)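 Weed seeds were sown in standard soil in pots and the plants treated post-emergence. Afterwards they were grown on in a controlled glasshouse at 24/16° C. day/night with 14 hours light and 65% humidity, and watered twice daily.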

[2] = test system: Echinochloa crusgaffi (ECHCG); test: as above; conditions: Echinochloa, 312 h, rate 1,000 g/ha, read-out: Percentage damage caused to weed species, post-emergence, ECHCG
Summary of the method: as §1

Setaria faberi (SETFA) [3] = test: as above; conditions: Setaria faberi, 312 h, rate 1,000 g/ha, read-out: Percentage damage caused to weed species, post-emergence, SETFA
Summary of the method: as §1

[4] = test system: Ipomoea hederaceae (IPOHE); test: as above; conditions: Ipomoea, 312 h, rate 1,000 g/ha, read-out: Percentage damage caused to weed species, post-emergence, IPOHE
Summary of the method: as §1

[5] = test system: Amaranthus retroflexus (AMARE); test: as above; conditions: Amaranthus retroflexus, 312 h, rate 1,000 g/ha, read-out: Percentage damage caused to weed species, post-emergence, AMARE
Summary of the method: as §1

Solanum nigrum (SOLNI) [6] = test: as above; conditions: Solanum nigrum, 312 h, rate 1,000 g/ha, read-out: Percentage damage caused to weed species, post-emergence, SOLNI
Summary of the method: as §1

[7] = test system: Alopecurus myosuroides (ALOMY); test: Pre-emergence biological efficacy, glasshouse, 1000 g/ha, evaluated after 13 days (100=total damage to plant; 0=no damage to plant); conditions: Alopecurus myosuroides, 312 h, rate 1,000 g/ha, read-out: Percentage damage caused to weed species, pre-emergence, ALOMY
Summary of the method: (§2)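 Test species are sown into pots of standard soil. Plants then grow in the glasshouse under controlled conditions (24/16° C. day/night, 14 hours light, 65% humidity) and receive water twice a day.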

Setaria faberi (SETFA) [8] = test: as above; conditions: Setaria faberi, 312 h, rate 1,000 g/ha, read-out: Percentage damage caused to weed species, pre-emergence, SETFA
Summary of the method: as §2

[9] = test system: Ipomoea hederaceae (IPOHE); test: as above; conditions: Ipomoea, 312 h, rate 1,000 g/ha, read-out: Percentage damage caused to weed species, pre-emergence, IPOHE
Summary of the method: as §2

[10] = test system: Echinochloa crus-galli (ECHCG); test: as above; conditions: Echinochloa crus-galli, 312 h, rate 1,000 g/ha, read-out: Percentage damage caused to weed species, pre-emergence, ECHCG
Summary of the method: as §2

[11] = test system: Amaranthus retroflexus (AMARE); test: as above; conditions: Amaranthus retroflexus, 312 h, rate 1,000 g/ha, read-out: Percentage damage caused to weed species, pre-emergence, AMARE
Summary of the method: as §2

Solanum nigrum (SOLNI) [12] = test: as above; conditions: Solanum nigrum, 312 h, rate 1,000 g/ha, read-out: Percentage damage caused to weed species, pre-emergence, SOLNI
Summary of the method: as §2

Row | SMILES | pest or weed control at 1000 g/ha [1] [%] | pest or weed control at 1000 g/ha [2] [%] | pest or weed control at 1000 g/ha (Setaria faberi (SETFA) [3]) [%] | pest or weed control at 1000 g/ha [4] [%] | pest or weed control at 1000 g/ha [5] [%] | pest or weed control at 1000 g/ha (Solanum nigrum (SOLNI) [6]) [%] | pest or weed control at 1000 g/ha [7] [%] | pest or weed control at 1000 g/ha (Setaria faberi (SETFA) [8]) [%] | pest or weed control at 1000 g/ha [9] [%] | pest or weed control at 1000 g/ha [10] [%] | pest or weed control at 1000 g/ha [11] [%] | pest or weed control at 1000 g/ha (Solanum nigrum (SOLNI) [12]) [%]
1 | COC(=O)c1nc(-c2ccc(Cl)c(F)c2)nc2c1ccn2Cc1ccco1 [Compound 11-18, 2-(4-Chloro-3-fluorophenyl)-7-(2-furanyl-methyl)-4-methoxycarbonyl-7H-pyrrolo[2,3-d]pyrimidine] | 0 | 0 | 0 | 20 | 0 | 50 | 0 | 0 | 0 | 0 | 0 | 0
2 | Cc1cc2c(C(=O)O)nc(-c3ccc(Cl)c(F)c3)nc2n1Cc1ccco1 [Compound 11-21, 4-Carboxy-2-(4-chloro-3-fluorophenyl)-7-(2-furanyl-methyl)-6-methyl-7H-pyrrolo[2,3-d]pyrimidine] | 0 | 0 | 0 | 20 | 0 | 50 | 0 | 0 | 0 | 0 | 0 | 0
3 | COC(=O)c1nc(-c2ccc(Cl)c(OC)c2F)nc2c1cc(C)n2Cc1ccco1 [Compound 11-66, 2-(4-Chloro-2-fluoro-3-methoxyphenyl)-7-(2-furanylmethyl)-4-methoxycarbonyl-6-methyl-7H-pyrrolo[2,3-d]pyrimidine] | 10 | 20 | 10 | 30 | 20 | 50 | 0 | 0 | 0 | 0 | 0 | 0
4 | COC(=O)c1nc(Cl)nc2c1cc(C)n2Cc1ccco1 [Compound 11-126, 2-chloro-7-(2-furanylmethyl)-4-methoxycarbonyl-6-methyl-7H-pyrrolo[2,3-d]pyrimidine] | 0 | 0 | 0 | 0 | 0 | 20 | 0 | 0 | 0 | 0 | 0 | 0
5 | COc1c(Cl)ccc(-c2nc(C(=O)O)c3c(C)cn(Cc4ccc(C(F)(F)F)o4)c3n2)c1F [Compound 12-63, 4-Carboxy-2-(4-chloro-2-fluoro-3-methoxyphenyl)-7-(5-trifluoromethyl-furan-2-yl-methyl)-5-methyl-7H-pyrrolo[2,3-d]pyrimidine] | 0 | 0 | 0 | 50 | 30 | 70 | 0 | 20 | 10 | 0 | 60 | 0
6 | COC(=O)c1nc(-c2ccc(Cl)c(OC)c2F)nc2c1c(C)cn2Cc1ccc(C(F)(F)F)o1 [Compound 12-64] | 10 | 10 | 30 | 50 | 20 | 30 | 0 | 0 | 0 | 0 | 0 | 0
7 | O=C(O)c1nc(-c2ccc(Cl)c(F)c2)nc2c1ccn2Cc1ncccc1Cl [Compound 14-17, 4-Carboxy-2-(4-chloro-3-fluorophenyl)-7-(3-chloropyrid-2-yl-methyl)-7H-pyrrolo[2,3-d]pyrimidine] | 0 | 0 | 0 | 10 | 0 | 40 | 0 | 0 | 0 | 0 | 0 | 0
8 | COC(=O)c1nc(-c2ccc(Cl)c(OC)c2F)nc2c1c(C)cn2C(=O)C(C)(C)C [Compound 16-64, 7-t-Butylcarbonyl-2-(4-chloro-2-fluoro-3-methoxyphenyl)-4-methoxycarbonyl-5-methyl-7H-pyrrolo[2,3-d]pyrimidine] | 0 | 0 | 0 | 70 | 10 | 60 | 0 | 0 | 0 | 0 | 0 | 0
9 | COC(=O)c1nc(-c2ccc(Cl)c(OC)c2F)nc2c1c(C)cn2C(=O)OC [Compound 17-64, 2-(4-Chloro-2-fluoro-3-methoxyphenyl)-4,7-di(methoxycarbonyl)-5-methyl-7H-pyrrolo[2,3-d]pyrimidine] | 0 | 0 | 0 | 0 | 0 | 20 | 0 | 0 | 0 | 0 | 0 | 0
10 | COC(=O)c1nc(-c2ccc(Cl)c(OC)c2F)nc2c1c(C)cn2S(C)(=O)=O [Compound 18-64, 2-(4-chloro-2-fluoro-3-methoxyphenyl)-4-methoxycarbonyl-5-methyl-7-methylsulphonyl-7H-pyrrolo[2,3-d]pyrimidine] | 10 | 10 | 30 | 40 | 20 | 40 | 0 | 0 | 0 | 0 | 0 | 0
